What all share (assay type): cell-based
Test [1] has as its target T1, mouse FP receptor (Mus musculus, UniProt P43117).
T1 construct: expressed in transfected cells; host or cells: CHO cells (FP-CHO)
The test is described as follows: FP agonist activity (intracellular calcium concentration) in FP-CHO cells. The following applies: for EC50: FP-CHO cells, intracellular calcium concentration, read-out: Agonist activity on various prostanoid receptors: EC50 value, FP. The source says:
(§1) (1-1) Measurement of Agonist Activity on Various Mouse Prostanoid Receptors
(§2) Using CHO cells (FP-CHO, EP1-CHO and IP-CHO, respectively) in which various mouse prostanoid receptors were forcibly expressed, respectively, agonist activity of test compounds on various prostanoid receptors was studied employing an intracellular calcium concentration regarding FP and EP1, and an intracellular cyclic AMP (hereinafter, abbreviated as cAMP) production amount regarding IP, as an index.
(§3) The test compound and a control substance (PGE2 and iroprost) were dissolved with dimethyl sulfoxide (DMSO) to prepare a 10 mmol/L solution. Regarding the prepared 10 mmol/L solution, upon use, the 10 mmol/L solution was thawed, stepwisely-diluted using DMSO, and diluted with a buffer solution for measurement or a buffer solution for measurement 2, which was subjected to an experiment.
(§4) Cells forcibly expressing various mouse prostanoid receptors were standing-cultured at 37° C. in the presence of 5% CO2 using an α-MEM medium (Sigma) (for culturing FP-CHO and EP1-CHO) containing inactivated (56° C., 30 minutes) 9.8 vol % dialysed-FBS (Invitrogen) and penicillin-streptomycin-glutamine (GIBCO-BRL), or nucleic acid-containing α-MEM (Sigma) (for culturing IP-CHO) containing inactivated (56° C., 30 minutes) 9.8 vol % dialysed-FBS (Invitrogen) and penicillin-streptomycin glutamine (Invitrogen). Subculturing was performed by the following method.
(§5) The medium was removed, and washed with a phosphate-buffered physiological saline not containing Ca^2+ and Mg^2+ two times. A suitable amount of trypsin-EDTA (Invitrogen) was added, this was incubated at 37° C. for about 3 minutes, cells were peeled, and a medium having a volume which is 10-fold a volume of trypsin-EDTA was added to stop an enzymatic reaction. After cells were recovered (120 g) into a centrifuging tube, and centrifuged at room temperature for 3 minutes, the supernatant was removed. Cells were suspended in a suitable amount of a medium, and seeded in a culturing flask.
(§6) (1-2) Measurement of FP and EP1 Agonist Activity (Measurement of Intracellular Calcium Concentration)
(§7) Regarding FP-CHO and EP1-CHO, by the same method as that of subculturing, cells were peeled and suspended and, before two days from measurement, the suspension was seeded on a 96-well UV plate so that the cell number per well became 1.0×10^4, and standing-cultured at 37° C. in the presence of 5% CO2. On the measurement day, after the medium was removed from each well of the 96-well UV plate, each well was washed with a phosphate-buffered physiological saline not containing Ca^2+ and Mg^2+ once. To each well was added 100 μL of a medium containing 5 μmol/L fura 2-AM (DOJINDO), 2.5 mmol/L Probenecid (Sigma), 20 μmol/L indometacin (Sigma) and 10 mmol/L HEPES (Invitrogen), and this was incubated for about 60 minutes in a CO2 incubator. After completion of the incubation, the medium was removed, and this was washed with a buffer solution for measurement (Hank's balanced salt solution (Nissui Pharmaceutical Co., Ltd., 9.8 g of the present product was dissolved in 1 L distilled water) containing 0.1 or 1 w/v % bovine serum albumin, 2 μmol/L indometacin, 2.5 mmol/L Probenecid and 10 mmol/L HEPES-NaOH (pH 7.4)) two times. To each well was added 120 μL of a buffer solution for measurement, and this was allowed to stand in a CO2 incubator for 30 minutes, and stabilized, which was subjected to an experiment.
(§8) The 96-well UV plate was set in a fluorescent spectral photometer (FDSS-3000, Hamamatsu Photonics K.K.), and an intracellular calcium concentration was measured. A buffered solution for measurement ([…]) containing an agonist at a variety of concentrations was added to perform a reaction. Measurement of an intracellular calcium concentration was performed by irradiating cells with excited light of 340 nm and 380 nm alternately, measuring a fluorescent intensity at 500 nm, and obtaining a fluorescent intensity ratio of 2-wavelength excitation. […]

The target in test [2] is T2, mouse EP1 receptor (Mus musculus, UniProt P35375).
T2 construct: expressed in transfected cells; host or cells: CHO cells (EP1-CHO)
T2 sequence (P35375 1-405): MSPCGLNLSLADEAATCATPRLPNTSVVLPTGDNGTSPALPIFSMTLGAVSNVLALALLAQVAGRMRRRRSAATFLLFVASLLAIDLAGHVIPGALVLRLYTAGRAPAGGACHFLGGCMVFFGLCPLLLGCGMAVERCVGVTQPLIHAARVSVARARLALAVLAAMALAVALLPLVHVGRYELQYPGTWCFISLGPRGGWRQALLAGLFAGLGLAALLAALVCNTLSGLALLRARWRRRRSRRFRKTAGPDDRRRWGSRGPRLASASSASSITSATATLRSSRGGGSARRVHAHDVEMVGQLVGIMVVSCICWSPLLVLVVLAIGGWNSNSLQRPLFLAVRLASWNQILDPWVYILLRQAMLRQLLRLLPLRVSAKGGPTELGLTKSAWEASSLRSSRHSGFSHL
Description: EP1 agonist activity (intracellular calcium concentration) in EP1-CHO cells. The following applies: for EC50: EP1-CHO cells, intracellular calcium concentration, read-out: Agonist activity on various prostanoid receptors: EC50 value, EP1.
From the text: as §1, §2, §3, §4, §5, §6, §7, §8

In test [3] the target is T3, mouse IP receptor (Mus musculus, UniProt P43252).
T3 construct: expressed in transfected cells; host or cells: CHO cells (IP-CHO)
T3 sequence (P43252 whole entry): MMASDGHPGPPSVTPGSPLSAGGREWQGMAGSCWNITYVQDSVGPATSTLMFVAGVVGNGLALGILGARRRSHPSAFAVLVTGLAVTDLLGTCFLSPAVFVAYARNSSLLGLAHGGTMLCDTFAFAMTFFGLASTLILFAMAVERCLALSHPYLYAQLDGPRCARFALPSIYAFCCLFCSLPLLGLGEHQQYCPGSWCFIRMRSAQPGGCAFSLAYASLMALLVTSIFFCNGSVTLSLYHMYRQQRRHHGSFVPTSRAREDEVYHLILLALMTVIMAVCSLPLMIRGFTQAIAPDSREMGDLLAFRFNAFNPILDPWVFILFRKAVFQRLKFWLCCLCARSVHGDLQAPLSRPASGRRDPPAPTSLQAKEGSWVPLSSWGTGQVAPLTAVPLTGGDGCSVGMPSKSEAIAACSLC
Description: IP agonist activity (cAMP concentration) in IP-CHO cells. The following applies: for EC50: IP-CHO cells, cAMP production, read-out: Agonist activity on various prostanoid receptors: EC50 value, IP.
From the text: as §1, §2, §3, §4, §5
(1-3) Measurement of IP Agonist Activity (Measurement of cAMP Concentration)
On the measurement day, a medium was removed, and IP-CHO was washed with a phosphate-buffered physiological saline containing 2 mmol/L EDTA and not containing Ca^2+ and Mg^2+ once. A suitable amount of a phosphate-buffered physiological containing 2 mmol/L EDTA and not containing Ca^2+ and Mg^2+ was added, this was incubated at 37° C. for about 10 minutes, cells were peeled, cells were recovered (500 g) into a centrifuging tube, and centrifuged at room temperature for 3 minutes, and the supernatant was removed.
Cells were suspended in a suitable amount of a buffer solution for measurement 1 (MEM medium (Invitrogen) containing 0.1 w/v % bovine serum albumin (Sigma) and 2 μmol/L diclofenac (Sigma)), and centrifuged at room temperature for 3 minutes at 500 g, and the supernatant was removed. Cells were suspended in a buffer solution for measurement 2 (MEM medium (Invitrogen) containing 0.1 w/v % bovine serum albumin (Sigma), 2 μmol/L diclofenac (Sigma) and 1 mmol/L 3-isobutyl-1-methylxanthine), and each 25 μL of the suspension was dispensed into a 96-well ½ area plate so that the cell number per well became 5.0×10^4. A buffer solution for measurement 2 (25 μL) containing an agonist at a variety of concentrations was added to perform a reaction at room temperature for 30 minutes. Measurement of a cAMP concentration was performed using the cAMP HTRF HiRange kit (CIS bio International). According to the two step protocol of the kit manual, each 25 μL of cAMP-D2 and cryptate diluted with a lysis buffer were added, and this was incubated at room temperature for 1 hour. After incubation for 1 hour, time resolution fluorescence at 620 nm and 660 nm when excited at 340 nm was measured using Analyst GF (Molecular Device), and a ratio (TRF ratio) was obtained, thereby, a cAMP concentration was calculated from a calibration line. […]

T1 sequence (P43117 whole entry): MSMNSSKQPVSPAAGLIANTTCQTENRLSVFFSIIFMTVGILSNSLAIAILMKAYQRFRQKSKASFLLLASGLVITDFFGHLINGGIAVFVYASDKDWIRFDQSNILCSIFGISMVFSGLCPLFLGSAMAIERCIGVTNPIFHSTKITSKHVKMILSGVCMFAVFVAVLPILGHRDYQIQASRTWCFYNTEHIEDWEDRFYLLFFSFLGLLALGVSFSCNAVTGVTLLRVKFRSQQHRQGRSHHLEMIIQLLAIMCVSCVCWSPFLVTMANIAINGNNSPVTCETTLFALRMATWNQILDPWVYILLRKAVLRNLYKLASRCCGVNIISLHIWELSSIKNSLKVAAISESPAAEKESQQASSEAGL

As for `O=C(O)CCC[C@H]1CC[C@@H]2[C@@H](/C=C/[C@@H](O)COc3ccccc3)[C@H](O)C[C@@H]2O1` [Comparative Compound A, reference compound], in test [1] (summary of Table 7), the “Agonist activity on a FP receptor (in words)” value is “has agonist activity”. Also, the “Agonist activity on an EP1 receptor (in words)” value in test [2] (summary of Table 7) is “has agonist activity”. In addition, in test [3] (summary of Table 7), the “Agonist activity on an IP receptor (in words)” value is given as “has agonist activity”.

With `O=C(O)CCC[C@H]1CC[C@@H]2[C@@H](/C=C/[C@@H](O)COc3cccc(Cl)c3)[C@H](O)C[C@@H]2OC1` [Example 17 (3), 4-{(3S, 5aR, 6R, 7R, 8aS)-6-[(1E, 3R)-4-(3-chlorophenoxy)-3-hydroxy-1-buten-1-yl]-7-hydroxyoctahydro-2H-cyclopenta[b]oxepin-3-yl}butanoic acid], the EC50 in test [1] was 3 nM; in test [2], 3200 nM; in test [3], greater than 10000 nM.

In the case of `Cc1cccc(OC[C@H](O)/C=C/[C@@H]2[C@H]3CC[C@H](CCCC(=O)O)CO[C@H]3C[C@H]2O)c1` [Example 17 (4), 4-{(3S, 5aR, 6R, 7R, 8aS)-7-hydroxy-6-[(1E, 3R)-3-hydroxy-4-(3-methylphenoxy)-1-buten-1-yl]octahydro-2H-cyclopenta[b]oxepin-3-yl}butanoic acid], the EC50 was 8.8 nM in test [1], greater than 10000 nM in test [2] and greater than 10000 nM in test [3].

For `O=C(O)CCC[C@H]1CC[C@@H]2[C@@H](/C=C/[C@@H](O)COc3ccccc3)[C@H](O)C[C@@H]2OC1` [Example 17 (23), 4-{(3S, 5aR, 6R, 7R, 8aS)-7-hydroxy-6-[(1E, 3R)-3-hydroxy-4-phenoxy-1-buten-1-yl]octahydro-2H-cyclopenta(b]oxepin-3-yl}butanoic acid], the EC50 is 8.3 nM in test [1], 100 nM in test [2] and greater than 10000 nM in test [3].

Consider `O=C(O)CCC[C@H]1CC[C@@H]2[C@@H](/C=C/[C@@H](O)COc3cc(F)ccc3F)[C@H](O)C[C@@H]2OC1` [Example 17 (25), 4-{(3S, 5aR, 6R, 7R, 8aS)-6-[(1E, 3R)-4-(2,5-difluorophenoxy)-3-hydroxy-1-buten-1-yl]-7-hydroxyoctahydro-2H-cyclopenta[b]oxepin-3-yl}butanoic acid], for which the EC50 in test [1] was 2.4 nM; in test [2] it was 857 nM; in test [3], greater than 10000 nM.

On to `O=C(O)COC[C@H]1CC[C@@H]2[C@@H](/C=C/[C@@H](O)COc3cc(F)cc(Cl)c3)[C@H](O)C[C@@H]2OC1` [Example 29 (12), ({(3R, 5aR, 6R, 7R, 8aS)-6-[(1E,3R)-4-(3-chloro-5-fluorophenoxy)-3-hydroxy-1-buten-1-yl]-7-hydroxyoctahydro-2H-cyclopenta[b]oxepin-3-yl}methoxy)acetic acid], for which the figures for the EC50 in test [1], in test [2] and in test [3] were 7.1 nM, greater than 10000 nM and greater than 10000 nM, respectively.

For `O=C(O)CCC[C@H]1CC[C@@H]2[C@@H](/C=C/C(F)(F)COc3ccccc3)[C@H](O)C[C@@H]2OC1` [Example 32, 4-{(3S, 5aR, 6R, 7R, 8aS)-6-[(1E)-3,3-difluoro-4-phenoxy-1-buten-1-yl]-7-hydroxyoctahydro-2H-cyclopenta[b]oxepin-3-yl}butanoic acid], the figures for the concentration for a half-maximal effect (EC50) in test [1], in test [2] and in test [3] were 1.6 nM, greater than 10000 nM and greater than 10000 nM, respectively.
